In US12227496B2 (BRISTOL-MYERS SQUIBB COMPANY, priority 2019, dated 2025):

Target: T1, human FXR (Homo sapiens, UniProt Q96RI1)
T1 construct: expressed in transfected cells; host or cells: HEK293 cells stably carrying a 5xGal4-response-element firefly luciferase reporter, transiently transfected with pcDNA3.1-Gal4-FXR
T1 sequence (Q96RI1 262-486 limits assumed): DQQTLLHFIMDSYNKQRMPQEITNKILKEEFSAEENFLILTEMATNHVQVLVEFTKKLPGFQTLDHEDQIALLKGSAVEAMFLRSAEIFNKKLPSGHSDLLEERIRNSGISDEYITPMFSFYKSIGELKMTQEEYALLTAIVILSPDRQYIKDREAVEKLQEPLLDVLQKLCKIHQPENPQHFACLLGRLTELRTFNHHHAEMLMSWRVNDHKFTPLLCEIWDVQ
Assay: transient human FXR/Gal4-luciferase reporter assay
Type: cell-based
Conditions: Gal4-hFXR LBD fusion, luciferase reporter in HEK293 cells; response relative to 8 μM GW-4064
In short: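 HEK293 cells stably carrying a 5×Gal4-response-element firefly luciferase reporter were transiently transfected with Gal4-hFXR. They were then incubated overnight at 37 °C with compound serial dilutions in medium containing 10% charcoal/dextran-stripped FBS. Luminescence was read after Steady-Glo addition.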

| Structure (SMILES) | EC50 [µM] |
| --- | --- |
| CCOc1ccnc(-c2cccc(N(CC34CCC(c5nc(C6CC6)no5)(CC3)CC4)C(=O)C3CCCCC3)c2)c1 [Example 77, N-((4-(3-cyclopropyl-1,2,4-oxadiazol-5-yl)bicyclo[2.2.2]octan-1-yl)methyl)-N-(3-(4-ethoxypyridin-2-yl)phenyl)cyclohexane carboxamide] | 0.268 |
| CCOc1cc(-c2cccc(N(CC34CCC(c5nc(C6CC6)no5)(CC3)CC4)C(=O)C3CCCCC3)c2)ccn1 [Example 78, N-((4-(3-cyclopropyl-1,2,4-oxadiazol-5-yl)bicyclo[2.2.2]octan-1-yl)methyl)-N-(3-(2-ethoxypyridin-4-yl)phenyl)cyclohexane carboxamide] | 0.181 |
| COc1cc(-c2cccc(N(CC34CCC(c5nnc(C)s5)(CC3)CC4)C(=O)C3CCC(F)(F)CC3)c2)ccn1 [Example 82, 4,4-difluoro-N-(3-(2-methoxypyridin-4-yl)phenyl)-N-((4-(5-methyl-1,3,4-thiadiazol-2-yl)bicyclo[2.2.2]octan-1-yl)methyl)cyclohexane-1-carboxamide] | 4.76 |
| COc1cc(-c2cccc(N(CC34CCC(c5nc(C6CC6)no5)(CC3)CC4)C(=O)C3CCOCC3)c2)ccn1 [Example 83, N-((4-(3-cyclopropyl-1,2,4-oxadiazol-5-yl)bicyclo[2.2.2]octan-1-yl)methyl)-N-(3-(2-methoxypyridin-4-yl)phenyl)tetrahydro-2H-pyran-4-carboxamide] | 0.303 |
| COc1nccc(-c2cccc(N(CC34CCC(c5nc(C6CC6)no5)(CC3)CC4)C(=O)C3CCOCC3)c2)n1 [Example 84, N-((4-(3-cyclopropyl-1,2,4-oxadiazol-5-yl)bicyclo[2.2.2]octan-1-yl)methyl)-N-(3-(2-methoxypyrimidin-4-yl)phenyl)tetrahydro-2H-pyran-4-carboxamide] | 1.77 |
| O=C(C1CCOCC1)N(CC12CCC(c3nc(C4CC4)no3)(CC1)CC2)c1cccc(-c2ccnc(OC3CC3)n2)c1 [Example 86, N-(3-(2-cyclopropoxypyrimidin-4-yl)phenyl)-N-((4-(3-cyclopropyl-1,2,4-oxadiazol-5-yl)bicyclo[2.2.2]octan-1-yl)methyl)tetrahydro-2H-pyran-4-carboxamide] | 2.47 |
| CC(C)(C)c1nc(C23CCC(CN(C(=O)C4CCOCC4)c4cccc(-c5ccc(OC(F)F)cc5)c4)(CC2)CC3)no1 [Example 89, N-((4-(5-(tert-butyl)-1,2,4-oxadiazol-3-yl)bicyclo[2.2.2]octan-1-yl)methyl)-N-(4′-(difluoromethoxy)-[1,1′-biphenyl]-3-yl)tetrahydro-2H-pyran-4-carboxamide] | 0.096 |
| COc1cc(-c2cccc(N(CC34CC(c5nc(C6CC6)no5)(C3)C4)C(=O)C3CCCCC3)c2)ccn1 [Example 96, N-((3-(3-cyclopropyl-1,2,4-oxadiazol-5-yl)bicyclo[1.1.1]pentan-1-yl)methyl)-N-(3-(2-methoxypyridin-4-yl)phenyl)cyclohexanecarboxamide] | 3.43 |
| COc1cc(-c2cccc(N(CC34CC(c5nc(C6CCOCC6)no5)(C3)C4)C(=O)C3CCCCC3)c2)ccn1 [Example 97, N-(3-(2-methoxypyridin-4-yl)phenyl)-N-((3-(3-(tetrahydro-2H-pyran-4-yl)-1,2,4-oxadiazol-5-yl)bicyclo[1.1.1]pentan-1-yl)methyl)cyclohexanecarboxamide] | 1.71 |
| COc1cc(-c2cccc(N(CC34CCC(c5nnnn5C)(CC3)CC4)C(=O)C3CCCCC3)c2)ccn1 [Example 100, N-(3-(2-methoxypyridin-4-yl)phenyl)-N-((4-(1-methyl-1H-tetrazol-5-yl)bicyclo[2.2.2]octan-1-yl)methyl)cyclohexanecarboxamide] | 0.506 |
| CC(C)(C)c1noc(C23CCC(CN(C(=O)C4CCC(F)(F)CC4)c4cccc(-c5nc(C6CC6)no5)c4)(CC2)CC3)n1 [Example 103, N-((4-(3-(tert-butyl)-1,2,4-oxadiazol-5-yl)bicyclo[2.2.2]octan-1-yl)methyl)-N-(3-(3-cyclopropyl-1,2,4-oxadiazol-5-yl)phenyl)-4,4-difluorocyclohexane-1-carboxamide] | 0.25 |
| CCOc1ncc(-c2cc(N(CC34CCC(c5noc(C(C)(F)F)n5)(CC3)CC4)C(=O)C3CCC(F)(F)CC3)ccc2F)cn1 [Example 106, N-((4-(5-(1,1-difluoroethyl)-1,2,4-oxadiazol-3-yl)bicyclo[2.2.2]octan-1-yl)methyl)-N-(3-(2-ethoxypyrimidin-5-yl)-4-fluorophenyl)-4,4-difluorocyclohexane-1-carboxamide] | 0.406 |

The remaining compounds from weak to strong by EC50, led by results:

| EC50 [µM] | Structure (SMILES) |
| --- | --- |
| 2.5 | COc1cc(-c2cccc(N(CC34CCC(c5nnc(C)s5)(CC3)CC4)C(=O)C3CCOCC3)c2)ccn1 [Example 81, N-(3-(2-methoxypyridin-4-yl)phenyl)-N-((4-(5-methyl-1,3,4-thiadiazol-2-yl)bicyclo[2.2.2]octan-1-yl)methyl)tetrahydro-2H-pyran-4-carboxamide] |
| 1.53 | COc1cc(-c2cccc(N(CC34CCC(C#N)(CC3)CC4)C(=O)C3CCCCC3)c2)ccn1 [Example 99, N-((4-cyanobicyclo[2.2.2]octan-1-yl)methyl)-N-(3-(2-methoxypyridin-4-yl)phenyl)cyclohexanecarboxamide] |
| 1.02 | CC(F)(F)c1nc(C23CCC(CN(C(=O)C4CCC(F)(F)CC4)c4ccc(F)c(-c5ccc(S(C)(=O)=O)cc5)c4)(CC2)CC3)no1 [Example 107, N-((4-(5-(1,1-difluoroethyl)-1,2,4-oxadiazol-3-yl)bicyclo[2.2.2]octan-1-yl)methyl)-4,4-difluoro-N-(6-fluoro-4′-(methylsulfonyl)-[1,1′-biphenyl]-3-yl)cyclohexane-1-carboxamide] |
| 0.799 | O=C(C1CCC(F)(F)CC1)N(CC12CCC(c3nc(C4CC4)no3)(CC1)CC2)c1cccc(-c2nc3cc(F)ccc3o2)c1 [Example 93, N-((4-(3-cyclopropyl-1,2,4-oxadiazol-5-yl)bicyclo[2.2.2]octan-1-yl)methyl)-4,4-difluoro-N-(3-(5-fluorobenzo[d]oxazol-2-yl)phenyl)cyclohexane-1-carboxamide] |
| 0.787 | COc1nccc(-c2cccc(N(CC34CCC(c5nc(C6CC6)no5)(CC3)CC4)C(=O)C3CCC(F)(F)CC3)c2)n1 [Example 85, N-((4-(3-cyclopropyl-1,2,4-oxadiazol-5-yl)bicyclo[2.2.2]octan-1-yl)methyl)-4,4-difluoro-N-(3-(2-methoxypyrimidin-4-yl)phenyl)cyclohexane-1-carboxamide] |
| 0.637 | CCOc1ccc(-c2cc(N(CC34CCC(c5noc(C(C)(F)F)n5)(CC3)CC4)C(=O)C3CCC(F)(F)CC3)ccc2F)cc1 [Example 105, N-((4-(5-(1,1-difluoroethyl)-1,2,4-oxadiazol-3-yl)bicyclo[2.2.2]octan-1-yl)methyl)-N-(4′-ethoxy-6-fluoro-[1,1′-biphenyl]-3-yl)-4,4-difluorocyclohexane-1-carboxamide] |
| 0.532 | COc1cc(-c2cccc(N(CC34CCC(c5nnc(C)s5)(CC3)CC4)C(=O)C3CCCCC3)c2)ccn1 [Example 80, N-(3-(2-methoxypyridin-4-yl)phenyl)-N-((4-(5-methyl-1,3,4-thiadiazol-2-yl)bicyclo[2.2.2]octan-1-yl)methyl)cyclohexanecarboxamide] |
| 0.408 | CCOc1cc(-c2cccc(N(CC34CCC(c5nc(C6CC6)no5)(CC3)CC4)C(=O)C3CCC(F)(F)CC3)c2)ccn1 [Example 79, N-((4-(3-cyclopropyl-1,2,4-oxadiazol-5-yl)bicyclo[2.2.2]octan-1-yl)methyl)-N-(3-(2-ethoxypyridin-4-yl)phenyl)-4,4-difluorocyclohexane-1-carboxamide] |
| 0.399 | COc1cc(-c2cccc(N(CC34CCC(C(=O)NC5CC5)(CC3)CC4)C(=O)C3CCCCC3)c2)ccn1 [Example 98, N-cyclopropyl-4-((N-(3-(2-methoxypyridin-4-yl)phenyl)cyclohexanecarboxamido)methyl)bicyclo[2.2.2]octane-1-carboxamide] |
| 0.274 | CCOc1ncc(-c2cccc(N(CC34CCC(c5nc(C(C)(C)C)no5)(CC3)CC4)C(=O)C3CCOCC3)c2)cn1 [Example 87, N-((4-(3-(tert-butyl)-1,2,4-oxadiazol-5-yl)bicyclo[2.2.2]octan-1-yl)methyl)-N-(3-(2-ethoxypyrimidin-5-yl)phenyl)tetrahydro-2H-pyran-4-carboxamide] |
| 0.227 | CCOc1ncc(-c2cccc(N(CC34CCC(c5noc(C(C)(C)C)n5)(CC3)CC4)C(=O)C3CCOCC3)c2)cn1 [Example 88, N-((4-(5-(tert-butyl)-1,2,4-oxadiazol-3-yl)bicyclo[2.2.2]octan-1-yl)methyl)-N-(3-(2-ethoxypyrimidin-5-yl)phenyl)tetrahydro-2H-pyran-4-carboxamide] |
| 0.097 | Cc1nc2ccc(-c3cccc(N(CC45CCC(c6nc(C7CC7)no6)(CC4)CC5)C(=O)C4CCOCC4)c3)cc2s1 [Example 91, N-((4-(3-cyclopropyl-1,2,4-oxadiazol-5-yl)bicyclo[2.2.2]octan-1-yl)methyl)-N-(3-(2-methylbenzo[d]thiazol-6-yl)phenyl)tetrahydro-2H-pyran-4-carboxamide] |
| 0.036 | Cc1nc2ccc(-c3cccc(N(CC45CCC(c6nc(C7CC7)no6)(CC4)CC5)C(=O)C4CCCCC4)c3)cc2s1 [Example 90, N-((4-(3-cyclopropyl-1,2,4-oxadiazol-5-yl)bicyclo[2.2.2]octan-1-yl)methyl)-N-(3-(2-methylbenzo[d]thiazol-6-yl)phenyl)cyclohexanecarboxamide] |
